Data published in patent US6392055B1, “Synthesis and biological evaluation of analogs of the antimitotic marine natural product curacin A” (The University of Pittsburgh, priority 2000, dated 2002).
Where two headings read alike, the source gives them in different places.

Assays:
[1] = test system: MDA-MB231 cells; experiment: Growth inhibition of breast carcinoma cells (MTS); assay type: cell-based, human
[2] = test system: 2008 cells; experiment: Growth inhibition of ovarian carcinoma cells (MTS); assay type: cell-based, human
[3] = test system: PC-3 cells; experiment: Growth inhibition of prostate carcinoma cells (MTS); assay type: cell-based, human
[4] = test system: tubulin (colchicine site); experiment: Inhibition of [3H]colchicine binding to tubulin; design: species or system bovine; conditions: for % CBI 5 μM, (30° C.) / % CBI 50 μM, (30° C.): 30° C. (values in parentheses); for displacement of pre-bound [3H]colchicine from tubulin, 30° C. / displacement of pre-bound [3H]colchicine from tubulin, 37° C.: equimolar (5 μM) concentration; for IC50: 5 μM [3H]colchicine, 1 μM tubulin
Description: Assays to determine whether 15mix-17mix inhibited binding of [^3H]colchicine to tubulin at both 30° C. and 37° C. were performed. This was accomplished using methods described previously. Kang, G.-J.; Getahun, Z.; Muzaffar, A.; Brossi, A.; Hamel, E. J. Biol. Chem. 1990, 265, 10255; Verdier-Pinard, P.; Lai, J.-Y.; Yoo, H.-D.; Yu, J.; Marquez, B.; Nagle, D. G.; Nambu, M.; White, J. D.; Falck, J. R.; Gerwick, W. H.; Day, B. W.; Hamel, E. Mol. Pharmacol. 1998, 53, 62. Briefly, 5 μM [^3H]colchicine (2.3 TBq/mmol), drug (1, 5, 10, 50, or 250 μM), or vehicle (DMSO, 5% v/v) were incubated at 30° C. for 15 minutes or at 37° C. for 10 minutes with 1 μM tubulin in the presence of 1 M monosodium glutamate, 0.1 M glucose-1-phosphate, 1 mM MgCl2, 1 mM GTP, and 0.5 mg/mL bovine serum albumin. The solutions were filtered through two stacks of DEAE-cellulose filters and the radioactivity in the filtrate was determined by scintillation spectrometry. Each series of determinations included positive controls of 1, 5, and/or 50 μM curacin A.

[5] = test system: isolated bovine brain tubulin; experiment: Inhibition of GTP/glutamate-induced tubulin polymerization (turbidimetric, 30° C.); assay type: biochemical; conditions: for % TPI 5 μM / Percent Tubulin Polymerization Inhibition (TPI), 5 μM: 5 μM compound
[6] = 96 h, read-out: GI50 MDA-MB231 (breast) 96 h
[7] = read-out: GI50 MDA-MB231 (breast) 48 h, 48 h
[8] = 96 h, read-out: GI50 2008 (ovarian) 96 h
[9] = read-out: GI50 2008 (ovarian) 48 h, 48 h
[10] = 96 h, read-out: GI50 PC3 (prostate) 96 h
[11] = read-out: GI50 PC3 (prostate) 48 h, 48 h
[12] = read-out: GI50 breast (MDA-MB231), 48 hours of continuous drug exposure, 48 hours continuous exposure
[13] = read-out: GI50 ovarian (2008), 48 hours of continuous drug exposure, 48 hours continuous exposure
[14] = read-out: GI50 prostate (PC3), 48 hours of continuous drug exposure, 48 hours continuous exposure
[15] = 30° C. turbidimetric assay, N=2 over 4 concentrations, read-out: IC50, inhibition of GTP/glutamate-induced assembly of tubulin
[16] = 96 h, Table II prints no unit, read-out: GI50 MDA 96 h
[17] = read-out: GI50 MDA 48 h, 48 h, Table II prints no unit
[18] = 96 h, Table II prints no unit, read-out: GI50 2008 96 h
[19] = read-out: GI50 2008 48 h, 48 h, Table II prints no unit
[20] = 96 h, Table II prints no unit, read-out: GI50 PC3 96 h
[21] = read-out: GI50 PC3 48 h, 48 h, Table II prints no unit
[22] = incubation at 30° C. for 15 minutes, read-out: 50% Colchicine Binding Inhibitory Concentration (CBI), 30° C.
[23] = incubation at 37° C. for 10 minutes, read-out: 50% Colchicine Binding Inhibitory Concentration (CBI), 37° C.
[24] = read-out: 50% Tubulin Polymerization Inhibition Concentration (TPI) IC50, 30° C., 10 μM tubulin

Compound | GI50 [1, 6] [nM] | GI50 [1, 7] [nM] | GI50 [2, 8] [nM] | GI50 [2, 9] [nM] | GI50 [3, 10] [nM] | GI50 [3, 11] [nM] | % CBI 5 μM, (30° C.) ([4]; 5 μM compound) | % CBI 5 μM, 37° C. ([4]; 5 μM compound) [%] | % CBI 50 μM, (30° C.) ([4]; 50 μM compound) | % CBI 50 μM, 37° C. ([4]; 50 μM compound) [%] | % TPI 5 μM [5] [%] | GI50 [1, 16] [nM] | GI50 [1, 17] [nM] | GI50 [2, 18] [nM] | GI50 [2, 19] [nM] | GI50 [3, 20] [nM] | GI50 [3, 21] [nM] | Percent Colchicine Binding Inhibition (CBI), 5 μM ([4]; 5 μM compound) [%] | Percent Colchicine Binding Inhibition (CBI), 50 μM ([4]; 50 μM compound) [%] | Percent Tubulin Polymerization Inhibition (TPI), 5 μM [5] [%] | further results
C=CCC(CCC(C)=CC=CCCC=CC1COC(C=Cc2ccccc2)=N1)OC (stereo not drawn) [JRC5] | 5800 ± 3600 | 14000 ± 3000 | 23000 ± 2000 | 17000 ± 3000 | 28000 ± 1000 | 30000 ± 6000 | (9 ± 6) % | 1 ± 12 | (−220 ± 16) % | −89 ± 7 | 29 |  |  |  |  |  |  |  |  |  | 
COc1cc(/C=N\OC/C=C/C=C(\C)CCC(O)c2cccs2)cc(OC)c1OC (stereo not drawn) [JRoxime1] | 380 ± 200 | 120 ± 100 | 340 ± 290 | 240 ± 180 | 530 ± 390 | 250 | (48 ± 12) % | 53 ± 2.2 | (57 ± 15) % | 37 ± 8 | 100 |  |  |  |  |  |  |  |  |  | GI50 [1, 12]: 120 ± 100 nM; GI50 [2, 13]: 240 ± 180 nM; GI50 [3, 14]: 250 ± 80 nM; displacement of pre-bound [3H]colchicine from tubulin, 30° C. [4]: 48±12%; displacement of pre-bound [3H]colchicine from tubulin, 37° C. [4]: 53±2%; IC50 [5, 15]: 170 ± 90 nM
COc1cc(/C=C\CC/C=C/C=C(\C)CCC(O)c2ccco2)cc(OC)c1OC (stereo not drawn) [Compound 19CR1] |  |  |  |  |  |  |  |  |  |  |  | 790 ± 167 | 288 ± 166 | 2530 ± 640 | 2720 ± 960 | 7730 ± 1220 | 7990 ± 3520 | 30.3 ± 7.5 | 59.7 ± 1.6 | 94.4 | 
C=CC[C@@H](CC/C(C)=C/C=C/CC/C=C\c1csc(C(C)(C)C)n1)OC [JRC4] | 250 ± 20 | 320 ± 200 | 250 ± 50 | 300 ± 170 | 450 ± 90 | 240 ± 70 | (38 ± 2) % | −21 ± 16 | (43 ± 19) % | 5 ± 13 | 100 |  |  |  |  |  |  |  |  |  | 
COc1ccccc1C(O)CCC(C)=CC=CCCC=Cc1cc(OC)c(OC)c(OC)c1 (stereo not drawn) [Compound 17d, (4E,6E,10Z)-11-(3,4,5-Trimethoxyphenyl)-4-methyl-1-(2-methoxy-phenyl)-2-ylundeca-4,6,10-trien-1-ol] |  |  |  |  |  |  |  |  |  |  |  |  |  |  |  |  |  |  |  |  | GI50 ([1]; Homo sapiens, MDA-MB-231, 48 h, read-out: GI50 MDA-MB231 (48 h)): 340 ± 30 nM; GI50 ([2]; Homo sapiens, Ovarian carcinoma cell, 48 h, read-out: GI50 2008 (48 h)): 330 ± 20 nM; GI50 ([3]; Homo sapiens, PC-3, 48 h, read-out: GI50 PC-3 (48 h)): 620 ± 200 nM; IC50 [4, 22]: 9000 ± 5000 nM; IC50 [4, 23]: 9000 ± 4000 nM; IC50 [5, 24]: 1200 nM
C=CC[C@@H](CC/C(C)=C/C=C/CC/C=C\[C@@H]1CSC(C(C)(C)C)=N1)OC [JRC3] | 270 ± 160 | 200 ± 110 | 180 ± 110 | 220 ± 90 | 61 ± 59 | 130 ± 80 | (35 ± 4) % | −35 ± 15 | (63 ± 6) % | 13 ± 12 | 100 |  |  |  |  |  |  |  |  |  | 
C=CC[C@@H](CC/C(C)=C/C=C/CC/C=C\[C@@H]1CSC([C@@H]2C[C@@H]2C)=N1)OC [curacin A] |  |  |  |  |  |  | (78 ± 2) % | 87 ± 9 | (99 ± 1) % | 97 ± 0 | 98 | 64 ± 7 | 186 ± 226 | 26 ± 12 | 35 ± 7 | 48 ± 8 | 50 ± 9 | 84.9 ± 1.07 | 96.2 ± 0.7 | 97.9 | GI50 ([1]; read-out: GI50 MDA-MB231 (48 h), 48 h): 96 ± 60 nM; GI50 [1, 12]: 96 ± 60 nM; GI50 ([2]; read-out: GI50 2008 (48 h), 48 h): 35 ± 7 nM; GI50 [2, 13]: 35 ± 7 nM; GI50 ([3]; read-out: GI50 PC-3 (48 h), 48 h): 50 ± 9 nM; GI50 [3, 14]: 50 ± 9 nM; Percent Colchicine Binding Inhibition (CBI), 5 μM, re-test value ([4]; 5 μM compound, re-test (in parentheses)): (95.0 ± 0.7*) %; Percent Colchicine Binding Inhibition (CBI), 50 μM, re-test value ([4]; 50 μM compound, re-test (in parentheses)): (97.7 ± 0.0*) %; displacement of pre-bound [3H]colchicine from tubulin, 30° C. [4]: 78±2%; displacement of pre-bound [3H]colchicine from tubulin, 37° C. [4]: 87±9%; IC50 [4, 22]: 900 ± 300 nM; IC50 [4, 23]: 600 ± 100 nM; IC50 [5, 15]: 520 ± 210 nM; IC50 [5, 24]: 780 ± 70 nM
COc1cc(/C=C\CC/C=C/C=C(\C)CCC(O)c2cc3ccccc3o2)cc(OC)c1OC (stereo not drawn) [Compound 19CR3] |  |  |  |  |  |  |  |  |  |  |  | 214 ± 51 | 151 ± 51 | 279 ± 30 | 311 ± 63 | 1020 ± 380 | 366 ± 157 | 9.9 ± 3.0 | 59.0 ± 7.5 | >100 | 
